The nature of data set [1]: SAXS phase identification of MLO-water mesophases (TIF-Gel). The class given is physicochemical. The conditions noted are these: 10% w/w of drug; lamellar at room temperature, cubic (Ia3d) at 38° C. As to the method:
SAXS measurements were used to determine the phase identity and symmetry of the produced LMPs. Measurements were performed on a Bruker AXS Micro, with a microfocused X-ray source, operating at voltage and filament current of 50 kV and 1000 μA, respectively. The Cu Kα radiation (λCu Kα=1.5418 Å) was collimated by a 2D Kratky collimator, and the data were collected by a 2D Pilatus 100K detector. The scattering vector Q=(4π/λ) sin θ, with 2θ being the scattering angle, was calibrated using silver behenate. Data were collected and azimuthally averaged using the Saxsgui software to yield 1D intensity vs. scattering vector Q, with a Q range from 0.001 to 0.5 Å^−1. For all measurements the samples were placed inside a stainless-steel cell between two thin replaceable mica sheets and sealed by an O-ring, with a sample volume of 10 μL and a thickness of ˜1 mm. Measurements were performed at 25° C., 30° C., 34° C., 36° C. and 38° C. Samples were equilibrated for 10 min before measurements whereas scattered intensity was collected over 30 min and over 60 min in case of lamellar phase. On the other hand, for the kinetic study, the sample was pre equilibrated at 25° C. and inserted in the sample holder kept at 38° C. and the scattered intensity collected over 5 min. To determine the structural parameters such as the size of the water channels, SAXS data information on the lattice were combined with the composition of the samples (R. Mezzenga, et al., Shear rheology of lyotropic liquid crystals: a case study, Langmuir 21, 3322-3333 (2005)).
MLO was used as the lipid component of the mesophases and mixed with weighed amounts of drugs (10% w/w) in sealed Pyrex tubes and alternatively centrifuging (10 min, 5000 g) several times at room temperature until a homogenous mixture was obtained. The mesophase was then equilibrated for 48 h at room temperature in the dark (see, FIGS. 1A and 1B).
Firstly, small angle X-ray scattering (SAXS) measurements were used to determine the optimal amount of water needed to obtain a lamellar phase which provides a transition to a cubic at 38° C. (FIGS. 2B and 2C). The X-ray beam directed at the gel results in a scattering pattern with a set of maxima, that correspond to sharp Bragg reflections characteristic of the long-range positional order. The sequence of Bragg reflections (and their ratio; listed in FIG. 2A) identifies the symmetry of the mesophase studied (See also FIGS. 1A and 1B).

Test in data set [2]: as above
It is filed as physicochemical. The settings on record: 5 mg of TOFA and 1 mg of TAC in 100 mg of gel.

As to `C=CC[C@@H]1/C=C(\C)C[C@H](C)C[C@H](OC)[C@H]2O[C@@](O)(C(=O)C(=O)N3CCCC[C@H]3C(=O)O[C@H](/C(C)=C/[C@@H]3CC[C@@H](O)[C@H](OC)C3)[C@H](C)[C@@H](O)CC1=O)[C@H](C)C[C@@H]2OC` [TAC, tacrolimus], the “effect of drug on phase identity and transition temperature of the gel” value in data set [1] is “did not affect the phase identity and the transition temperature”. Moreover, in data set [2], the “effect of drug entrapment on phase identity and thermal behaviour of the carrier gel” value is “did not affect the phase identity and thermal behaviour”.

The values above are taken from patent US20250222109A1, “STRUCTURED LIPID COMPOSITIONS” (Universität Bern, priority 2022, published 2025).
